Patent US11034672B1, “Tyrosine kinase inhibitor compositions, methods of making and methods of use” (Black Diamond Therapeutics, Inc., priority 2018, dated 2021)

Tests used:
[1] = tested on: covalently-activated EGFR variants; test: Covalent dimer formation, Western blot under non-reducing conditions; format: cell-based
GBM = details: in combination with radiation and temozolomide; cited from earlier work
[2] = tested on: cells having the EGFR-Vii mutation; test: Proliferation of cells having the EGFR-Vii mutation (FIG. 18); format: cell-based
Description: (§1) EC50 values were determined with the same application.

[3] = tested on: cells expressing ErbB ectodomain variants
HER2 S310F [4] = test: Tumor pHER2/pERK AlphaLisa in mice bearing HER2 S310F BaF3 tumors (Examples 15-18); format: in vivo; details: two day acute oral dosing, 15 mg/kg; at peak plasma levels
Description: (§2) Following the second dose, tumors were collected at 2 hours, 5 hours, 12 hours and 24 hours, and analyzed for both pHER2 activity and pERK activity via AlphaLisa. Plasma was also collected at these time points and analayzed for the presence of Compound No. 21 to determine pharmacokinetic profile. The tumor tissue was cut and homogenized using the Precellys Soft Tissue Homogenizing kit (KT03961-1-00.3.2) containing T-PER tissue protein extraction reagent (Thermo Scientific #78510), supplemented with Protease Inhibitor (Sigma P8340), and Phosphatase Inhibitors II and III (Sigma P5726 and P0044). Tissue samples were homogenized in the Precellys machine by spinning two times for one minute each. Sample tubes were centrifuged for 5 min at 15,000 rpm at 4° C. The supernatant was transferred to a fresh microtube and spun again for 5 minutes at 15,000 rpm at 4° C. Supernatant was then transferred to a fresh microtube and placed on ice. The protein concentration of the supernatant was measured using the BCA reagent Kit (Thermo Scientific #23225). Tumor tissue-derived lysates were analyzed for either HER2 activity or EGFR activity by detection of pHER2 (Tyr1221/1222) or pERK (Thr202/Tyr204) phosphosites, respectively, via AlphaLisa. Briefly, tumor Lysates were diluted to 0.5 ug/ul in 1× diluted SureFire Ultra Kit Lysis Buffer (5× supplied stock) supplemented with Protease Inhibitor (Sigma P8340) and Phosphatase Inhibitor II and III (Sigma P5726 and P0044). 10 ul of total tumor lysate was added per well in triplicate to a 384-well Opti-plate (Perkin Elmer #6007290). Activation Buffer was diluted 25-fold in combined Reaction Buffer 1 and Reaction Buffer 2, and acceptor beads were diluted 50-fold in the combined Reaction Buffers. 5 ul/well of the Acceptor bead:Reaction buffer mixture was added to each well.
as §2, with “No. 5” for “No. 21”, “Buffer (X” for “Buffer (5×”
To determine the ability of Compound No. 118 to inhibit tumor growth and induce tumor regression in vivo, a mouse tumor model containing the HER2 S310F mutation was used. Athymic nude mice from Charles River Labs bearing HER2 S310F BaF3 tumors were treated with two day acute oral dosing of Compound No. 118 at 15 mg/kg. […]

HER2 S310F [5] = target: T1, HER2 S310F (Homo sapiens, UniProt P04626, S310F); test: Activity for inhibiting HER2 (Table B), HER2 S310F; format: cell-based; details: read-out: HER2 S310F, potency code (IC50)
T1 construct: expressed in transfected cells; host or cells: BaF3 (murine pro-B)
T1 sequence (P04626 23-1255 S310F): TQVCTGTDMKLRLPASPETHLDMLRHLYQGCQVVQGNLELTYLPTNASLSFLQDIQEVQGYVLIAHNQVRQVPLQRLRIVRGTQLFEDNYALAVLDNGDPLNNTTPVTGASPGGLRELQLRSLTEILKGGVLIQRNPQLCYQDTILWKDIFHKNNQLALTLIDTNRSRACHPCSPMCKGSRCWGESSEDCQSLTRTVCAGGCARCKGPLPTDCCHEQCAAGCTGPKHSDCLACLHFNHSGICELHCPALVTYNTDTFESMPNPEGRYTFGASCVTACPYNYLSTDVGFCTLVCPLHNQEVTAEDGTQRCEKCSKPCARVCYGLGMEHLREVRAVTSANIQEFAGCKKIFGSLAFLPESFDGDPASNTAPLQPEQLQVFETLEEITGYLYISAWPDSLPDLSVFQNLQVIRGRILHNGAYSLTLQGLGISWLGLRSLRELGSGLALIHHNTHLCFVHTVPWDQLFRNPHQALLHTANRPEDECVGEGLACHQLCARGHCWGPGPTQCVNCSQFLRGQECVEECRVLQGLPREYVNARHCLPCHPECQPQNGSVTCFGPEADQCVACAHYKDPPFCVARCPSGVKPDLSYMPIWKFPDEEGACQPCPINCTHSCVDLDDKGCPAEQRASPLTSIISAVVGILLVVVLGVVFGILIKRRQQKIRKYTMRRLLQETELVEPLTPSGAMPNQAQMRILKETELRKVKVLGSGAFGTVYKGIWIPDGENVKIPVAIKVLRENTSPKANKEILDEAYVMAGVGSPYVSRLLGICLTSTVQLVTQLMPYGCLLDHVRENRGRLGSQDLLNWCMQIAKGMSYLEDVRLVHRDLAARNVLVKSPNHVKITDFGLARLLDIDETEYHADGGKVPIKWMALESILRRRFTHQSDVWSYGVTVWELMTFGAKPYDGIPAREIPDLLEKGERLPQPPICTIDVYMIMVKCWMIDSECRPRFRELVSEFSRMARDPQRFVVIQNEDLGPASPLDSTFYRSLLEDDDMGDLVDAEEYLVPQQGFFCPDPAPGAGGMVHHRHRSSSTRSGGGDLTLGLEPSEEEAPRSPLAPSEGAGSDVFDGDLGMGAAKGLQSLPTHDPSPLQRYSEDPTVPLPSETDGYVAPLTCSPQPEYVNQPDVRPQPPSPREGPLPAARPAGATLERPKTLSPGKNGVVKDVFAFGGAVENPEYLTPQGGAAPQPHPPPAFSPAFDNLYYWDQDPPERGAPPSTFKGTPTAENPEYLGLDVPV
Description: as §1

HER2 YVMA [6] = target: T2, HER2 YVMA (Homo sapiens, UniProt P04626, INS775YVMA); test: BaF3 cell proliferation assay, HER2 YVMA (Table B); format: cell-based; details: potency code, 3 days, CellTiterGlo, read-out: HER2 YVMA (Activity for Inhibiting HER2)
T2 construct: expressed in transfected cells; host or cells: BaF3 (murine pro-B)

EGFR WT [7] = target: T3, EGFR WT (Homo sapiens, UniProt P00533); test: BaF3 cell proliferation assay, EGFR WT (Table A); format: cell-based; details: potency code, 3 days, CellTiterGlo, read-out: EGFR WT (Activity for Inhibiting EGFR)
T3 sequence (P00533 25-1210 N540K): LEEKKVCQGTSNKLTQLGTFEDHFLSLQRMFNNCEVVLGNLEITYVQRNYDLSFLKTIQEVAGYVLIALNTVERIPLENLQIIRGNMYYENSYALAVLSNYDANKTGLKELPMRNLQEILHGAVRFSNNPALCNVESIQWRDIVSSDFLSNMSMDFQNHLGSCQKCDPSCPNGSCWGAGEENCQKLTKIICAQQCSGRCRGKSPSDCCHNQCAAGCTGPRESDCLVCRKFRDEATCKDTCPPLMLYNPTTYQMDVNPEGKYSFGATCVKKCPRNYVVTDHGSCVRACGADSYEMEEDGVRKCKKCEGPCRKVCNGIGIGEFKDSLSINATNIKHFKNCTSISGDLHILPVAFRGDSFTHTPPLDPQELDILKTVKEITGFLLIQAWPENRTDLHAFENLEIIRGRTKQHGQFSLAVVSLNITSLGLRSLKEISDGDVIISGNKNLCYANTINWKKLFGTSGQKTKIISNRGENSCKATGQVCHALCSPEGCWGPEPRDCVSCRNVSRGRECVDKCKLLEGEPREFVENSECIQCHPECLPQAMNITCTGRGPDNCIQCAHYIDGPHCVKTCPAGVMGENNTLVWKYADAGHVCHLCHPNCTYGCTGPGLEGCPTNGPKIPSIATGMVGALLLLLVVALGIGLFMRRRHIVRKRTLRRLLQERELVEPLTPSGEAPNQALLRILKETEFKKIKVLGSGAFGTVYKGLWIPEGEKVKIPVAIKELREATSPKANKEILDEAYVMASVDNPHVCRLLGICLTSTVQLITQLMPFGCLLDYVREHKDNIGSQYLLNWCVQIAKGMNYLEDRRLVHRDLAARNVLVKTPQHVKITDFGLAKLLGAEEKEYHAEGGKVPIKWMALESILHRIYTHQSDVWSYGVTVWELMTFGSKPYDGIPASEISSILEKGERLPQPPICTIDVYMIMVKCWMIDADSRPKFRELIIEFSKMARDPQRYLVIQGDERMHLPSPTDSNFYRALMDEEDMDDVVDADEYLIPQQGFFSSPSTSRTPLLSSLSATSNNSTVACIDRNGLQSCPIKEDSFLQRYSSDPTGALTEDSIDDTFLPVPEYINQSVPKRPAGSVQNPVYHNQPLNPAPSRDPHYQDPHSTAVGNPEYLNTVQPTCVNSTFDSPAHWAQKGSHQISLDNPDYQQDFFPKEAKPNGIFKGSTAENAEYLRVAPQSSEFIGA
Procedure, shortened: (§3)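 Steps: HEK 293T transfected with pMXs-IRES-Blasticidin kinase vector plus Gag-Pol and VSV-G; virus harvested at 24 and 48 hrs; BaF3 infected twice by centrifugation, Blasticidin-selected, then grown without IL-3. Proliferation EC50 measured.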

HER2 YVMA [8] = target: T2, HER2 YVMA; test: Activity for inhibiting HER2 (Table B), HER2 YVMA; format: cell-based; details: read-out: HER2 YVMA, potency code (IC50)
Description: as §1

HER2 WT [9] = target: T4, HER2 WT (Homo sapiens, UniProt P04626); test: BaF3 cell proliferation assay, HER2 WT (Table B); format: cell-based; details: potency code, 3 days, CellTiterGlo, read-out: HER2 WT (Activity for Inhibiting HER2)
T4 sequence (P04626 23-1255): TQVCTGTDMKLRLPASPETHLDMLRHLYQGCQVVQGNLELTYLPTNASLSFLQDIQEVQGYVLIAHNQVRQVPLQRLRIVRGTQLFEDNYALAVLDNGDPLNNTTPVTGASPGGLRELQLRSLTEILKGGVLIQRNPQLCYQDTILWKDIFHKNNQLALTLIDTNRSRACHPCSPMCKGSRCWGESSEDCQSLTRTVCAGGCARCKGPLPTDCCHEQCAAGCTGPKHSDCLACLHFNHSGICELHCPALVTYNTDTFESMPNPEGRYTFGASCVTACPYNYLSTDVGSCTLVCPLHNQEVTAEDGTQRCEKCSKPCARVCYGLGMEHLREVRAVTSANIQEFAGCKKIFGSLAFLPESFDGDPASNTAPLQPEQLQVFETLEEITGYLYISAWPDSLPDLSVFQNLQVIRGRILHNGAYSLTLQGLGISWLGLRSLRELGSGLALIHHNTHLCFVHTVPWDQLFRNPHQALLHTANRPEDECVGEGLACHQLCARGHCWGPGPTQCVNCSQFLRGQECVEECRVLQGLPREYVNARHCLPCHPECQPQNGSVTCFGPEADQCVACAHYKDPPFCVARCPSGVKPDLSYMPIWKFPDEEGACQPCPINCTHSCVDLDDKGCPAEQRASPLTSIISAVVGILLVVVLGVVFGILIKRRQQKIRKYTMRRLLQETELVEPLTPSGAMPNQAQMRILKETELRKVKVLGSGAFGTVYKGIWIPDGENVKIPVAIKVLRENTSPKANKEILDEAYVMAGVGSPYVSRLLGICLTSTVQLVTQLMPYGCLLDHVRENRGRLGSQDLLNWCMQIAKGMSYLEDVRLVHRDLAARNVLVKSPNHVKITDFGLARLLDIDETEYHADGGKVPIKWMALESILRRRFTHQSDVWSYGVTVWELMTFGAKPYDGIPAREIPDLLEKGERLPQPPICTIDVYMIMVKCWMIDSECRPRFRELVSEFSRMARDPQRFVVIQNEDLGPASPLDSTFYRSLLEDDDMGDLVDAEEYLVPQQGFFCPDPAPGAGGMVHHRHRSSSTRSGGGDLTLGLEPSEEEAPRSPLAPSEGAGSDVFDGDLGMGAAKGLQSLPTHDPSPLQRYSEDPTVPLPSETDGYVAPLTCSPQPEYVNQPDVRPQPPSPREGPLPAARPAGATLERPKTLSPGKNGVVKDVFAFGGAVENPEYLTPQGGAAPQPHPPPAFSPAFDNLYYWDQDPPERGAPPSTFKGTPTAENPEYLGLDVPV

EGFR V3 [10] = target: T5, EGFR V3 (Homo sapiens, UniProt P00533, DELINS30-297G); test: BaF3 cell proliferation assay, EGFR V3 (Table A); format: cell-based; details: potency code, 3 days, CellTiterGlo, read-out: EGFR V3 (Activity for Inhibiting EGFR)
T5 construct: expressed in transfected cells; host or cells: BaF3 (murine pro-B), retroviral pMXs-IRES-Blasticidin
T5 sequence (P00533 with tags, fused parts or gaps DELINS30-297G): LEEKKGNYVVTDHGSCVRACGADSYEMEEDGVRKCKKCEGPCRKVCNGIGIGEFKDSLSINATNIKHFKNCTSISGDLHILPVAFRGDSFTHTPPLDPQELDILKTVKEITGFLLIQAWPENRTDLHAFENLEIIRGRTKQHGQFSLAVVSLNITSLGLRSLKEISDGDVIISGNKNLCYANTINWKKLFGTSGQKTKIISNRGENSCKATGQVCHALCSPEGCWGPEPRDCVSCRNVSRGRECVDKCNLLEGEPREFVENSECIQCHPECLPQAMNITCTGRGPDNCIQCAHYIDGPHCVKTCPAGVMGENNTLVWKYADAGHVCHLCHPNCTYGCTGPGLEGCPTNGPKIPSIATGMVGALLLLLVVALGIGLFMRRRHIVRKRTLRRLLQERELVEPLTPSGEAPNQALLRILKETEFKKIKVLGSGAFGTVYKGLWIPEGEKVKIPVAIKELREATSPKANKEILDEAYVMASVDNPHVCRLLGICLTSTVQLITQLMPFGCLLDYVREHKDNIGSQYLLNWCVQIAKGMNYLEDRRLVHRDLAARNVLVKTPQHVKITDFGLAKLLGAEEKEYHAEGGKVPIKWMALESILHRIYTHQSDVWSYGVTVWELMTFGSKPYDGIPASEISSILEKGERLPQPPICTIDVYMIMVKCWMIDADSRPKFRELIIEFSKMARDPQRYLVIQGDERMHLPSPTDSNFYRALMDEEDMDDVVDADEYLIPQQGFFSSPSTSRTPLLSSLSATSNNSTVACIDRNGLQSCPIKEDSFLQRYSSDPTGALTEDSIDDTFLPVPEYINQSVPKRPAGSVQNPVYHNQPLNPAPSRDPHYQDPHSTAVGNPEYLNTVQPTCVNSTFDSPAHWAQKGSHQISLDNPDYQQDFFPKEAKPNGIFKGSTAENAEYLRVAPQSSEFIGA
Procedure, shortened: as §3

HER2 S310F [11] = target: T1, HER2 S310F; test: BaF3 cell proliferation assay, HER2 S310F (Table B); format: cell-based; details: potency code, 3 days, CellTiterGlo, read-out: HER2 S310F (Activity for Inhibiting HER2)
EGFR V3 [12] = target: T5, EGFR V3; test: Activity for inhibiting EGFR (Table A), EGFR V3 (EGFR-Viii); format: cell-based; details: read-out: EGFR V3, potency code (IC50)
HER2 WT [13] = target: T4, HER2 WT; test: Activity for inhibiting HER2 (Table B), HER2 WT; format: cell-based
EGFR WT [14] = target: T3, EGFR WT; test: Activity for inhibiting EGFR (Table A), EGFR WT; format: cell-based; details: read-out: EGFR WT, potency code (IC50)
BaF3-HER2-Δ16 cells = test: Proliferation of BaF3 cells driven by HER2-Δ16; format: cell-based, murine; details: sub-saturating concentrations
Description: Assay for cell proliferation: BaF3 cell lines were resuspended at 1.3E5 c/ml in RPMI containing 10% Heat Inactivated FBS, 2% L-glutamine and 1% Pen/Strep and dispensed in triplicate (17.5E4 c/well) into 96 well plates. To determine the effect of drug on cell proliferation, cells incubated for 3 days in the presence of vehicle control or test drug at varying concentrations. Inhibition of cell growth was determined by luminescent quantification of intracellular ATP content using CellTiterGlo (Promega), according to the protocol provided by the manufacturer. Comparison of cell number on day 0 versus 72 hours post drug treatment was used to plot dose-response curves. The number of viable cells was determined and normalized to vehicle-treated controls. […] EC50 values were determined with the same application.

[15] = tested on: HER2 extracellular variants; test: Covalent dimer formation of HER2 extracellular variants, Western blot; format: cell-based; details: Type I inhibitors

## C=CC(=O)Nc1cccc(Nc2nc(Nc3ccc(N4CCN(C(C)=O)CC4)cc3OC)ncc2C(F)(F)F)c1 [CO-1686]
[1]
  Induced dimers: Yes

## C#Cc1cccc(Nc2ncnc3cc(OCCOC)c(OCCOC)cc23)c1 [Erlotinib, erlotinib]
GBM
  median OS (mOS): 8.6 months
  median PFS (mPFS): 2.8 months

## CN(C)C/C=C/C(=O)Nc1cc2c(Nc3ccc(F)c(Cl)c3)ncnc2cc1C#CC1[C@H]2COC[C@@H]12 (some centres unmarked) [NT-113]
[1]; FIG. 18 legend
  dimerization for covalently activated ErbB receptors: induces dimerization
[2]
  cellular proliferation in response to the inhibitor: no evidence for increased cellular proliferation

## CCOc1cc2ncc(C#N)c(Nc3ccc(OCc4ccccn4)c(Cl)c3)c2cc1NC(=O)/C=C/CN(C)C [Neratinib, neratinib]
[3]
  paradoxical activation: devoid of paradoxical activation

## CCOc1cc2ncc(C#N)c(Nc3ccc(F)c(Cl)c3)c2cc1NC(=O)/C=C/CN(C)C [Pelitinib, pelitinib]
[1]
  Induced dimers: Yes

## C=CC(=O)Nc1cccc(Oc2nc(Nc3ccc(N4CCN(C)CC4)cc3)ncc2Cl)c1 [WZ3146]
[1]
  Induced dimers: Yes

## C=CC(=O)Nc1cccc(Oc2nc(Nc3ccc(N4CCN(C)CC4)cc3OC)ncc2Cl)c1 [WZ4002]
[1]
  Induced dimers: Yes

## C=CC(=O)Nc1cccc(Sc2nc(Nc3ccc(N4CCN(C)CC4)cc3)ncc2Cl)c1 [WZ8040]
[1]
  Induced dimers: Yes

## C=CC(=O)Nc1cc2c(Nc3ccc(OCc4cccc(F)c4)c(Cl)c3)ncnc2cc1OCCN1CCOCC1 [compound 27]
HER2 S310F [4]
  pERK1/2 (Thr202/Tyr204) in tumors: reduction
  pHER2 (Tyr1221/1222) in tumors: reduction
HER2 S310F [5]
  IC50: 0.02 to 0.03 µM
HER2 YVMA [6]
  IC50: 0.03 to 0.05 µM
EGFR WT [7]
  IC50: 0.3 to 0.5 µM
HER2 YVMA [8]
  IC50: 0.03 to 0.05 µM
HER2 WT [9]
  IC50: 0.01 to 0.02 µM
EGFR V3 [10]
  IC50: 0.03 to 0.05 µM
HER2 S310F [11]
  IC50: 0.02 to 0.03 µM
EGFR V3 [12]
  IC50: 0.03 to 0.05 µM
HER2 WT [13]; Table B, read-out: HER2 WT, potency code (IC50)
  IC50: 0.01 to 0.02 µM
HER2 WT [13]; text lists of compounds, read-out: IC50 value for inhibiting wild-type HER2
  IC50: ≤ 0.02 µM
EGFR WT [14]
  IC50: 0.3 to 0.5 µM

## C=CC(=O)Nc1cc2c(Nc3ccc(OCc4ccccn4)c(Cl)c3)ncnc2cc1OCCCN1CC(OC)C1 [compound 118]
HER2 S310F [4]
  pERK1/2 (Thr202/Tyr204) in tumors: reduction
  pHER2 (Tyr1221/1222) in tumors: reduction
HER2 S310F [5]
  IC50: 0.01 to 0.02 µM
HER2 YVMA [6]
  IC50: 0.02 to 0.03 µM
EGFR WT [7]
  IC50: 0.2 to 0.3 µM
HER2 YVMA [8]
  IC50: 0.02 to 0.03 µM
EGFR V3 [10]
  IC50: 0.02 to 0.03 µM
HER2 S310F [11]
  IC50: 0.01 to 0.02 µM
EGFR V3 [12]
  IC50: 0.02 to 0.03 µM
EGFR WT [14]
  IC50: 0.2 to 0.3 µM

## CNC(=O)CN1CCC(Oc2cc3c(Nc4cccc(Cl)c4F)ncnc3cc2OC)CC1 [sapitinib]
BaF3-HER2-Δ16 cells
  proliferation of BaF3 cells driven by HER2-Δ16: paradoxically stimulate the proliferation
[15]
  covalent dimers for HER2 extracellular variants: induce the expression of covalent dimers
